Where a SMILES comes first, the peptide text is derived from it. [ ]: non-standard residue; d: D form. αMeF = C[C@](N)(Cc1ccccc1)C(=O)O; Aib = CC(C)(N)C(=O)O
What was measured:
Neprilysin (rhNEP) = molecular target: T1, Neprilysin (rhNEP) (Homo sapiens, UniProt P08473); experiment: neprilysin stability study (LC/MS); type: in vitro ADME
T1 construct: purchased R&D Systems 1182-ZNC-010
Experimental: (§1) Peptides for evaluation were prepared to a concentration of 1.0 mg/mL solutions in either pure water, sterile saline for injection (0.9% w/v NaCl/water) or 1× PBS (Dulbecco). 100 μL (100 μg/mL peptide) of these solutions was added to 900 μL of each protease solution. Additional experiments were performed examining protein degradation during exposure to serum and gastric fluid. For serum studies, peptides were incubated with 50% female Sprague-Dawley strain rat serum (SD rat serum). For gastric fluid studies, peptides were incubated 1:1 (volume:volume), fresh rat gastric fluid.
(§2) The peptide and enzyme (or serum or gastric fluid) were co-incubated in a temperature regulated water bath at 37° C. for the duration of the experiment. During each experiment 100 μL aliquots (10 μg peptide) of the incubated peptide-enzyme mixture were withdrawn periodically, quenched by addition of an equal volume of 5% TFA (v/v) in 1:1 water/acetonitrile to arrest proteolytic activity, and analyzed by liquid chromatography-mass spectrometry (LC/MS): Agilent Polaris C8-A column (4.6×100 mm, 3 micron) using a linear binary gradient of 10-90% MeCN (0.1% TFA v/v) in water (0.1% TFA v/v) over 30 minutes at 1.5 mL min^−1 at ambient temperature. Analytes were detected by both UV absorption at 210 nm and ionization using a Waters 3100 mass detector (ESI^+ mode). New peptidic species (fragments) derived from enzymatic cleavage of peptides were analyzed post-process, and their molecular masses were used to identify the precise cleavage position (highlighting the scissile bond in each case).

Chymotrypsin (rhCTRC) = molecular target: T2, Chymotrypsin (rhCTRC) (Homo sapiens, UniProt Q99895); experiment: chymotrypsin stability study (LC/MS); type: in vitro ADME; conditions: chymotrypsin
T2 construct: purchased R&D Systems 6907-SE-010
T2 sequence (Q99895 30-268): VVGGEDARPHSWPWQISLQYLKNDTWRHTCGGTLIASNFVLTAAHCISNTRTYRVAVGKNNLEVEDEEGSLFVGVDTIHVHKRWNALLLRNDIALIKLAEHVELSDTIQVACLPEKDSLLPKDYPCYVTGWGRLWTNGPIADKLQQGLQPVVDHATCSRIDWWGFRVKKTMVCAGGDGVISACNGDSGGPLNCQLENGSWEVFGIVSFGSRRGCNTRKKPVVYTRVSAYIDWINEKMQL
Experimental: as §1, §2

hGLP-1R = molecular target: T3, hGLP-1R (Homo sapiens, UniProt P43220); experiment: cAMP functional assay, cells expressing human GLP-1 receptor (primary assay); type: cell-based
T3 construct: expressed in transfected cells

[1] = molecular target: T4, trypsin from porcine pancreas (Sus scrofa, UniProt P00761); experiment: trypsin stability study (LC/MS); type: in vitro ADME
T4 construct: purchased Sigma P7409; host or cells: porcine pancreas
Experimental: as §1, §2

hGIP-R = molecular target: T5, hGIP-R (Homo sapiens, UniProt P48546); experiment: cAMP functional assay, cells expressing human GIP receptor (primary assay); type: cell-based; conditions: n = 2
T5 construct: expressed in transfected cells
T5 sequence (P48546 22-466): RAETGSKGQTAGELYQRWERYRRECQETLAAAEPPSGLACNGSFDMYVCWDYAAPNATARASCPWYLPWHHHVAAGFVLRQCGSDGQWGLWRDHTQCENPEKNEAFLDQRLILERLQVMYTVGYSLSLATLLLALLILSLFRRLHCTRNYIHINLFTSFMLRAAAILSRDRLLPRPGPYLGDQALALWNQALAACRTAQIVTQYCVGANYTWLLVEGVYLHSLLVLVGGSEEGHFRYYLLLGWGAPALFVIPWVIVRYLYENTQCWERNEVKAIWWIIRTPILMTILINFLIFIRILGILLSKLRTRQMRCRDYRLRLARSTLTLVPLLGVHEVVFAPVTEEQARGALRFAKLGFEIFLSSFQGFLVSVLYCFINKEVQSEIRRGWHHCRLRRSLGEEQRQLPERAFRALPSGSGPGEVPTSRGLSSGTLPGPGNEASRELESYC

[2] = serum stability study (LC/MS); type: in vitro ADME; conditions: female, Sprague-Dawley; 50% SD rat serum, after 60 hours; read-out: peptide remaining intact
Experimental: as §1
as §2, with “New peptidic species (fragments) derived from enzymatic cleavage of peptides were analyzed post-process, and their molecular masses were used to identify the precise cleavage position (highlighting the scissile bond in each case).” left out

T1 sequence (P08473 52-750 limits assumed): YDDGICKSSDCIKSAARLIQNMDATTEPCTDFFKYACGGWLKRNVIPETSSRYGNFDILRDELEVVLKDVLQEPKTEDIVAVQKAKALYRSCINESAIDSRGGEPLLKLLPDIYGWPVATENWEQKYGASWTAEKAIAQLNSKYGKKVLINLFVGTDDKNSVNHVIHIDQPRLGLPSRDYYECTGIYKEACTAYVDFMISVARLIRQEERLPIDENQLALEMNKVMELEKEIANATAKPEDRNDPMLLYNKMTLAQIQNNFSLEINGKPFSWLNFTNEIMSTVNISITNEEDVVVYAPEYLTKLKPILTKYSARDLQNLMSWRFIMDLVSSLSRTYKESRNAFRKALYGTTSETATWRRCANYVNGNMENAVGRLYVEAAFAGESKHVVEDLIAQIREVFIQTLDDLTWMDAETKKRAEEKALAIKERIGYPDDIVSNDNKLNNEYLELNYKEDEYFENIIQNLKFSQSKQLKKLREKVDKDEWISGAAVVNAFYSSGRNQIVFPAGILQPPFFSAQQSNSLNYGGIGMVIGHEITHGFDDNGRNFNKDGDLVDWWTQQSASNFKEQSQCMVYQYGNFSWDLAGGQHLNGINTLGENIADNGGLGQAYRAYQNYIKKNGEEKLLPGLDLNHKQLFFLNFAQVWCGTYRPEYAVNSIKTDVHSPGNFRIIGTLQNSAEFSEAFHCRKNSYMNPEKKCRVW
T4 sequence (P00761 9-231): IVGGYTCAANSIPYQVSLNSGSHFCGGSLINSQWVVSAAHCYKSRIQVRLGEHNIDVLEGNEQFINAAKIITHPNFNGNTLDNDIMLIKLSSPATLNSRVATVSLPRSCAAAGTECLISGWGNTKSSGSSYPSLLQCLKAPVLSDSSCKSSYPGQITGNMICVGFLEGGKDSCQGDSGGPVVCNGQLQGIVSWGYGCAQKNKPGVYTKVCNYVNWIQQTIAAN
T3 sequence (P43220 24-463): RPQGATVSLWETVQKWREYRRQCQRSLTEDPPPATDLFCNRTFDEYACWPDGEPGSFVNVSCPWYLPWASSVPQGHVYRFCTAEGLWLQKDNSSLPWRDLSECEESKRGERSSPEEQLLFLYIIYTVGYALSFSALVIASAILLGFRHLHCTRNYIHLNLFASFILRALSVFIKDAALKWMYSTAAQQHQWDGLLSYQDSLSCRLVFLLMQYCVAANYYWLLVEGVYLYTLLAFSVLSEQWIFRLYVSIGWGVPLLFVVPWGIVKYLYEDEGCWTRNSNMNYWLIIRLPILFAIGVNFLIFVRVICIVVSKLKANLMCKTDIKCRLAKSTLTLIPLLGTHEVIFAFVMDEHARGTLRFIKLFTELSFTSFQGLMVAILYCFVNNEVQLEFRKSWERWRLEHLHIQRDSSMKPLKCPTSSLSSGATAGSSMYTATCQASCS

Neprilysin resistance (Discussion / Description) (Neprilysin (rhNEP); Table 2 description): fully Neprilysin resistant but | proteolytic degradation over time-course (Neprilysin (rhNEP); neprilysin, 96 hour time-course): no proteolytic degradation | stability after prolonged exposure (Neprilysin (rhNEP); neprilysin, after 10 days (240 hours)): still stable | cleavage site observed (Chymotrypsin (rhCTRC)): solely at the Leu26/Val27 | time by which degradation occurred (Chymotrypsin (rhCTRC); 37° C.): ≤ 48 h | potency compared to the GLP-1 comparator peptide, SEQ ID NO:4 (hGLP-1R): equipotent | EC50 (hGLP-1R; n = 2): 0.0338 nM | Trypsin resistance/susceptibility (Discussion / Description) ([1]; Table 2 description): Trypsin susceptibility | time by which proteolytic degradation occurred (carboxyl side of Lys20, Lys28 and Arg30) ([1]; trypsin, 37° C.): ≤ 90 min | EC50 (hGIP-R): 102 nM | remaining at 60 h, 100 μg/mL [2]: ~64%
SMILES: CC[C@H](C)[C@H](NC(=O)[C@](C)(Cc1ccccc1)NC(=O)[C@H](CCC(=O)O)NC(=O)[C@H](CCCCN)NC(=O)[C@H](C)NC(=O)[C@H](C)NC(=O)[C@H](CCC(N)=O)NC(=O)CNC(=O)[C@H](CCC(=O)O)NC(=O)[C@H](CC(C)C)NC(=O)[C@](C)(Cc1ccccc1)NC(=O)[C@H](CO)NC(=O)[C@H](CO)NC(=O)[C@@H](NC(=O)[C@H](CC(=O)O)NC(=O)[C@H](CO)NC(=O)[C@@H](NC(=O)[C@](C)(Cc1ccccc1)NC(=O)[C@H](CO)NC(=O)CNC(=O)[C@H](CCC(=O)O)NC(=O)C(C)(C)NC(=O)[C@@H](N)Cc1c[nH]cn1)[C@@H](C)O)C(C)C)C(=O)N[C@@H](C)C(=O)N[C@@](C)(Cc1ccccc1)C(=O)N[C@@H](CC(C)C)C(=O)N[C@H](C(=O)N[C@@H](CCCCN)C(=O)NCC(=O)N[C@@H](CCCNC(=N)N)C(N)=O)C(C)C [SEQ ID NO: 38, H-(Aib)^2-EG-(S)^5-(α-MeF)^6-TSDV^10 SS-(α-MeF)^13-LE^15 GQAAK^20 E-(α-MeF)^22-IA-(α-MeF)^25 LVKGR^30] (H-H[Aib]EGS[αMeF]TSDVSS[αMeF]LEGQAAKE[αMeF]IA[αMeF]LVKGR-NH2)
